# Test results from ChEMBL document CHEMBL5634133, “Indirubin derivatives as bifunctional molecules inducing DNA damage and targeting PARP for the treatment of cancer” (Eur J Med Chem, 2023).
# The source made the active and inactive calls. No cut-off for these calls is given here.
# How the values were obtained:
# [1] = tested on: NCM460; assay: Antiproliferative activity against human NCM460 cells assessed as inhibition of cell viability incubated for 72 hrs by CCK8 assay; assay type: functional, cell-based; conditions: NCM460, 72 h
# [2] = tested on: HCT-116; assay: Antiproliferative activity against human HCT-116 cells assessed as inhibition of cell viability incubated for 72 hrs by CCK8 assay; assay type: functional, cell-based; conditions: HCT-116, 72 h
# [3] = tested on: MCF7; assay: Antiproliferative activity against human MCF7 cells assessed as inhibition of cell viability incubated for 72 hrs by CCK8 assay; assay type: functional, cell-based; conditions: MCF7, 72 h
# [4] = tested on: A549; assay: Antiproliferative activity against human A549 cells assessed as inhibition of cell viability incubated for 72 hrs by CCK8 assay; assay type: functional, cell-based; conditions: A549, 72 h
# [5] = tested on: MV4-11; assay: Antiproliferative activity against human MV4-11 cells assessed as inhibition of cell viability incubated for 72 hrs by CCK8 assay; assay type: functional, cell-based; conditions: MV4-11, 72 h
# [6] = biological target: T1, Poly [ADP-ribose] polymerase 1 (Homo sapiens, UniProt P09874); conditions: dose 10.0 nM, time 10.0 min
# [7] = biological target: T1, Poly [ADP-ribose] polymerase 1; assay: Inhibition of PARP1 (unknown origin) incubated for 10 mins by chemiluminescence assay
# [8] = tested on: MV4-11; assay: Antiproliferative activity against human MV4-11 cells assessed as inhibition of cell viability incubated for 72 hrs in presence of IDM by CCK8 assay; assay type: functional, cell-based; conditions: MV4-11, 72 h
# [9] = tested on: HCT-116; assay: cells; conditions: Homo sapiens, HCT-116, 72 h
# Description: Antiproliferative activity against human HCT-116 cells assessed as inhibition of cell viability incubated for 72 hrs in presence of IDM by CCK8 assay
# [10] = tested on: HCT-116; assay: Antitumor activity against human HCT-116 cells xenografted in BALB/c nude mouse assessed as tumor growth inhibition at 20 mg/kg, ip administered for 14 days relative to control; assay type: functional; conditions: time 14 day
# [11] = tested on: HCT-116; assay: Induction of DNA damage in human HCT-116 cells assessed as increase in gammaH2AX protein level at 1 uM incubated for 48 hrs in presence of IDM by Western blotting analysis; assay type: cell-based
# [12] = tested on: MCF7; assay: cells; conditions: Homo sapiens, MCF7, 72 h
# Description: Antiproliferative activity against human MCF7 cells assessed as inhibition of cell viability incubated for 72 hrs in presence of IDM by CCK8 assay
# [13] = tested on: A549; assay: cells; conditions: Homo sapiens, A549, 72 h
# Description: Antiproliferative activity against human A549 cells assessed as inhibition of cell viability incubated for 72 hrs in presence of IDM by CCK8 assay
# [14] = tested on: NCM460; assay: cells; conditions: Homo sapiens, NCM460, 72 h
# Description: Antiproliferative activity against human NCM460 cells assessed as inhibition of cell viability incubated for 72 hrs in presence of IDM by CCK8 assay
# T1 sequence (P09874 whole entry): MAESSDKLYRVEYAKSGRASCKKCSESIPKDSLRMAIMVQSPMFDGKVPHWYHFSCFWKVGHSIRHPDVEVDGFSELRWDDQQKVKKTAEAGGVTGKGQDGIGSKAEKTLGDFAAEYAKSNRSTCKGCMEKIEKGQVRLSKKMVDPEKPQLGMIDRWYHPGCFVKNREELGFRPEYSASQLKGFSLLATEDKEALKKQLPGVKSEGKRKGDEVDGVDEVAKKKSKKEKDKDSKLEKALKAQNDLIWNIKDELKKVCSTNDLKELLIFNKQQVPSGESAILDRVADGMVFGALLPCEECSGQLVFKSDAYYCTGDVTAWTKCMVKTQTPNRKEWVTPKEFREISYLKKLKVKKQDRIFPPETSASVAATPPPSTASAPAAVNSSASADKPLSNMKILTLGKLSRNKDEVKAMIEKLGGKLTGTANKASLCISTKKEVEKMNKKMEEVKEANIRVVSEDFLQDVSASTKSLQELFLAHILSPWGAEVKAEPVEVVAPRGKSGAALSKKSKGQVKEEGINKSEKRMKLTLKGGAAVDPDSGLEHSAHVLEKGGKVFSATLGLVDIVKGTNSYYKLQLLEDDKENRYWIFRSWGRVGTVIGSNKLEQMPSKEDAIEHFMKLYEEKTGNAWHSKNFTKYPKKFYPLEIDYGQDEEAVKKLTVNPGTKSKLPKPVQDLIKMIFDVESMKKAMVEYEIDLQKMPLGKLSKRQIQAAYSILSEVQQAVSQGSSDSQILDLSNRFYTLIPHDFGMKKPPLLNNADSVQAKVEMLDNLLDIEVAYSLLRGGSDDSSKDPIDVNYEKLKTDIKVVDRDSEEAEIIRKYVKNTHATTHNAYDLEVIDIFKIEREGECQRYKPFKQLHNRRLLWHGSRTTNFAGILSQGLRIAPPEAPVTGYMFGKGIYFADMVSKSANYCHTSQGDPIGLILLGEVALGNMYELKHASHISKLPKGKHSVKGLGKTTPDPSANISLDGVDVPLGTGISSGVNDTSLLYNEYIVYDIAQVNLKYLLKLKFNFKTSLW
SMILES,IC50 [2],IC50 [3],IC50 [4],IC50 [5],inhibition [6],IC50 [7],IC50 [8],IC50 [9],IC50 [12],IC50 [13],IC50 [14],IC50 [1],TGI [10],Activity [11]
O=C1Nc2ccccc2/C1=C1/Nc2ccccc2/C1=N\OCCCCCC(=O)N1CCN(C(=O)c2ccc(Cc3n[nH]c(=O)c4ccccc34)cc2F)CC1,32.4 µM,> 50 µM,> 50 µM,> 50 µM,,,,,,,,> 60 µM,,
O=C1Nc2ccccc2/C1=C1/Nc2ccccc2/C1=N\OCCCCCCCNC(=O)c1cc(Cc2n[nH]c(=O)c3ccccc23)ccc1F,> 50 µM,> 50 µM,> 50 µM,> 50 µM,,,,,,,,> 60 µM,,
O=C1Nc2ccccc2/C1=C1/Nc2ccccc2/C1=N\OCCCCCCC(=O)N1CCN(C(=O)c2ccc(Cc3n[nH]c(=O)c4ccccc34)cc2F)CC1,39.2 µM,> 50 µM,> 50 µM,> 50 µM,,,,,,,,> 60 µM,,
O=C1Nc2ccccc2/C1=C1/Nc2ccccc2/C1=N\OCCCCCCNC(=O)c1cc(Cc2n[nH]c(=O)c3ccccc23)ccc1F,47.2 µM,> 50 µM,> 50 µM,> 50 µM,,,,,,,,> 60 µM,,
O=C1Nc2ccc(Cl)cc2/C1=C1/Nc2ccccc2/C1=N\OCCCC(=O)N1CCN(C(=O)c2cc(Cc3n[nH]c(=O)c4ccccc34)ccc2F)CC1,28.3 µM,> 50 µM,> 50 µM,> 50 µM,,,,,,,,> 60 µM,,
NC(=O)c1cccc2cn(-c3ccc([C@@H]4CCCN(C(=O)CCCCCO/N=C5/C(=C6/C(=O)Nc7ccccc76)Nc6ccccc65)C4)cc3)nc12,29.4 µM,> 50 µM,> 50 µM,47 µM,,,,,,,,> 60 µM,,
NC(=O)c1cccc2cn(-c3ccc([C@@H]4CCCN(C(=O)CCCCCCO/N=C5/C(=C6/C(=O)Nc7ccccc76)Nc6ccccc65)C4)cc3)nc12,> 50 µM,> 50 µM,> 50 µM,> 50 µM,,,,,,,,> 60 µM,,
NC(=O)c1cccc2cn(-c3ccc([C@@H]4CCCN(C(=O)CCCCCCCO/N=C5/C(=C6/C(=O)Nc7ccccc76)Nc6ccccc65)C4)cc3)nc12,> 50 µM,> 50 µM,> 50 µM,> 50 µM,,,,,,,,> 60 µM,,
NC(=O)c1cccc2cn(-c3ccc([C@@H]4CCCN(C(=O)c5ccc(CO/N=C6/C(=C7/C(=O)Nc8ccccc87)Nc7ccccc76)cc5)C4)cc3)nc12,31.3 µM,47.3 µM,49.1 µM,39.6 µM,,,,,,,,> 60 µM,,
O=C1Nc2ccccc2/C1=C1/Nc2ccccc2/C1=N\OCCCCCCCC(=O)N1CCN(C(=O)c2ccc(Cc3n[nH]c(=O)c4ccccc34)cc2F)CC1,43.9 µM,> 50 µM,> 50 µM,> 50 µM,,,,,,,,> 60 µM,,
O=C1Nc2ccccc2/C1=C1/Nc2ccccc2/C1=N\OCC1CCN(C(=O)c2cc(Cc3n[nH]c(=O)c4ccccc34)ccc2F)CC1,45 µM,> 50 µM,> 50 µM,47.5 µM,,,,,,,,> 60 µM,,

# Now those with a lower IC50 [2], led by results:
IC50 [2],IC50 [3],IC50 [4],IC50 [5],inhibition [6],IC50 [7],IC50 [8],IC50 [9],IC50 [12],IC50 [13],IC50 [14],SMILES,IC50 [1],TGI [10],Activity [11]
13.7 µM,6.89 µM,8.22 µM,14.9 µM,,,,,,,,O=C1Nc2ccccc2/C1=C1/Nc2ccccc2/C1=N\OCCCNC(=O)c1cc(Cc2n[nH]c(=O)c3ccccc23)ccc1F,9.37 µM,,
21.1 µM,44.3 µM,37.6 µM,38.7 µM,,,,,,,,O=C1Nc2ccccc2/C1=C1/Nc2ccccc2/C1=N\OCCCCC(=O)N1CCN(C(=O)c2ccc(Cc3n[nH]c(=O)c4ccccc34)cc2F)CC1,> 60 µM,,
17.8 µM,32.4 µM,25 µM,21.6 µM,55.8%,0.00446 µM,,,,,,O=C1Nc2ccccc2/C1=C1/Nc2ccc(F)cc2/C1=N\OCCCC(=O)N1CCN(C(=O)c2cc(Cc3n[nH]c(=O)c4ccccc34)ccc2F)CC1,> 60 µM,,
25.5 µM,> 50 µM,> 50 µM,> 50 µM,,,,,,,,O=C1Nc2ccccc2/C1=C1/Nc2ccccc2/C1=N\OCCCCCNC(=O)c1cc(Cc2n[nH]c(=O)c3ccccc23)ccc1F,> 60 µM,,
3.1 µM,1.82 µM,4.41 µM,11.7 µM,,,,,,,,O=C1Nc2ccccc2/C1=C1/Nc2ccccc2/C1=N\OCCCCNC(=O)c1cc(Cc2n[nH]c(=O)c3ccccc23)ccc1F,8.04 µM,,
8.21 µM,48.7 µM,47.2 µM,48.4 µM,31.1%,,,,,,,O=C1Nc2ccc(Br)cc2/C1=C1/Nc2ccc(Br)cc2/C1=N\OCCCC(=O)N1CCN(C(=O)c2cc(Cc3n[nH]c(=O)c4ccccc34)ccc2F)CC1,> 60 µM,,
27.4 µM,43.8 µM,42.7 µM,33.1 µM,,,,,,,,O=C1Nc2ccccc2/C1=C1/Nc2ccccc2/C1=N\OCc1ccc(C(=O)N2CCN(C(=O)c3cc(Cc4n[nH]c(=O)c5ccccc45)ccc3F)CC2)cc1,> 60 µM,,
0.75 µM,45.3 µM,42.3 µM,44.4 µM,49.9%,,,,,,,O=C1Nc2ccc(F)cc2/C1=C1/Nc2ccc(F)cc2/C1=N\OCCCC(=O)N1CCN(C(=O)c2cc(Cc3n[nH]c(=O)c4ccccc34)ccc2F)CC1,> 60 µM,,
11.1 µM,93.9 µM,29.5 µM,13.4 µM,50.6%,,2.36 µM,1.37 µM,2.33 µM,6.06 µM,20.2 µM,O=C(c1cc(Cc2n[nH]c(=O)c3ccccc23)ccc1F)N1CCN(C(=O)C2CC2)CC1 [OLAPARIB],67.2 µM,32.5%,Active
1.81 µM,11.8 µM,12.6 µM,3.82 µM,,,1.69 µM,0.83 µM,1.41 µM,4.17 µM,21.1 µM,NC(=O)c1cccc2cn(-c3ccc([C@@H]4CCCNC4)cc3)nc12 [NIRAPARIB],53.7 µM,,
27.3 µM,41.9 µM,48.2 µM,36.2 µM,,,,,,,,NC(=O)c1cccc2cn(-c3ccc([C@@H]4CCCN(C(=O)CCCCO/N=C5/C(=C6/C(=O)Nc7ccccc76)Nc6ccccc65)C4)cc3)nc12,> 60 µM,,
8.43 µM,29.2 µM,27.6 µM,11.4 µM,53.8%,0.00466 µM,,,,,,O=C1Nc2ccc(Br)cc2/C1=C1/Nc2ccccc2/C1=N\OCCCC(=O)N1CCN(C(=O)c2cc(Cc3n[nH]c(=O)c4ccccc34)ccc2F)CC1,> 60 µM,,
19.3 µM,38.7 µM,34.7 µM,23.8 µM,54.9%,0.00225 µM,,,,,,O=C1Nc2ccc(F)cc2/C1=C1/Nc2ccccc2/C1=N\OCCCC(=O)N1CCN(C(=O)c2cc(Cc3n[nH]c(=O)c4ccccc34)ccc2F)CC1,> 60 µM,,
